Assays:
Type in all cases: cell-based
[1] = system: human brain tumor and human ovarian tumor cells; assay: Combined modality drug/radiation microtiter assay (Example 7); details: Taxol 0.5-25.0 μM with 2 Gy, or Taxol 5 μM with 1 Gy-6 Gy; through 5 days post-treatment; four tumor specimens
Procedure: Twenty-four (24) hours post-plating, cells in the microtiter plate wells were exposed to the chemotherapeutic agent Taxol. One set of plates was designed to have escalating Taxol doses with (0.5-25.0 μM) with a fixed radiation dose (2 Gy). A second set of plates was designed to have a fixed Taxol dose (5 μM) with an escalating radiation dose (1 Gy-6 Gy). The cells in the plates were irradiated using a Siemans Stabilipan X-ray machine operating at 250 kVp, 15 mA with a dose rate of 75 rad/minute.
For each of the two treatment schema, cell number per well was monitored as a function of time through 5 days post-treatment. Cell number relative to controls was determined and survival curves were fit.

[2] = system: human ovarian tumor cells; assay: Combination chemotherapy microtiter assay, Taxol and carboplatin (Example 4); details: then 48 hours, four tumor specimens
Procedure: Twenty-four (24) hours post-plating, the chemotherapeutic agent Taxol was applied to the wells in the microtiter plates. […] Rows 5 and 9 served as a control. The Taxol exposure time was two hours. Twenty-four hours later, the cells in the wells were exposed to carboplatin for two hours. The tumor cells in the wells were then incubated for another 48 hours.
Cell number relative to control was determined.

human breast tumor cells = assay: Hormonal therapy microtiter assay, inhibition of cell proliferation (Example 5)

CC(=O)O[C@H]1C(=O)[C@@]2(C)[C@H]([C@H](OC(=O)c3ccccc3)[C@]3(O)C[C@H](OC(=O)[C@H](O)[C@@H](NC(=O)c4ccccc4)c4ccccc4)C(C)=C1C3(C)C)[C@]1(OC(C)=O)CO[C@@H]1C[C@@H]2O [Taxol]
cell killing by drug combined with radiation (cell number relative to controls, survival curves) [1]: Both additive and synergistic cell killing
cell number relative to control, escalating Taxol/fixed carboplatin ([2]; Taxol 1.0, 5.0, 25 μM for two hours, carboplatin 200 μM for two hours 24 h later): dose response relationship was observed

N.N.O=C([O-])C1(C(=O)[O-])CCC1.[Pt+2] [carboplatin]
cell number relative to control, fixed Taxol/escalating carboplatin ([2]; Taxol 5 μM for two hours, carboplatin 50, 200, 1000 μM for two hours 24 h later): dose response relationship was observed

CC/C(=C(\c1ccccc1)c1ccc(OCCN(C)C)cc1)c1ccccc1 [Tamoxifen]
inhibition of cell proliferation (cell number relative to control) (human breast tumor cells; 10 nM to 20 μM, six doses, 24 hours exposure, then 72 hours, four breast tumor specimens): two of the four breast specimens tested showed an inhibition of cell proliferation
concentration range in which the responses occurred (human breast tumor cells; tested range 10 nM to 20 μM): mid to high
